Data reported in patent US9604945B2, “Sydnonimines-specific dopamine reuptake inhibitors and their use in treating dopamine related disorders” (priority 2007, dated 2017).

Legend:
[1] = Brain drug concentration by different routes of administration; type: in vivo, C57BL/6 mice; details: for Brain Drug Concentration: time 0 (pre-dose); for concentration at 5 min / concentration at 15 min / concentration at 30 min / concentration at 60 min / concentration at 120 min / concentration at 240 min / concentration at 480 min: C57BL/6, mouse, brain
Method: The following materials and methods are provided to facilitate the practice of Example 9, in which drug concentration in certain biological samples were assessed using different routes of administration.
Parameters Used in Dosing and Drug Administration of the Compound of Example 3:
Adult C57BL/6 mice (preferred 16 weeks old).
Three mice per time point. If all three routes are conducted in same day, one group of pre-dose is efficient.
In the studies using adult C57BL/6 mice (preferably approximately 16 weeks old), dosing and drug administration parameters for the compound of Example 3 were explored. Clearly, the compound is suitable for oral administration and lasts in the plasma up to 2-3 hours.

mice = assay: Irwin behavioral battery; type: in vivo, mouse; details: FIGS. 7A-7C
Method: To further characterize the pharmacological effects of these compounds, Irwin behavioral battery testing was performed.
Testing occurred towards the end of the light cycle between 8-11 a.m. (lights go off at 11:00 a.m.). The mice were acclimated to the testing room for at least 30 minutes. The Irwin test equipment (timer, viewing jar and support, open arena, grid, ruler, sound box, wood stocks, kimwipes box) was placed under a laminar flow hood. The mouse was first placed in the viewing jar for five (5) minutes and the following parameters were scored:
At the end of the 5-minute period, the viewing jar with the muose in it was transferred to the arena, where the jar was disassembled and the mouse released into the arena. The mouse was not handled by the experimenter. The following parameters were scored in the arena in the following order:
Then the mouse was picked up by its tail and kept above the arena to score the following set of parameters:
The mouse was then placed in supine restraint to score the below parameters in the following order:
The final three parameters were scored with the mouse above or in the arena: […]

male mice [2] = assay: Accelerating rotarod assay; type: in vivo, mouse; details: 10 and 90 mg/kg, FIG. 11
Method: Rotarod assays were also performed using the experimental protocol and design set forth below. Individually housed male mice aged 8-12 weeks were used for this experiment. Mice were maintained on a reverse L:D/12 p.m.: 12 a.m. cycle in a barrier facility with food and water available ad libitum. Testing occurred towards the end of the light cycle between 6-12 a.m. Mice were acclimated to the testing room for at least 30 minutes.
The assay was carried out using four EzRod test chambers kept in a laminar hood for testing. For the accelerating rotarod paradigm, mice were given 10 trials with the maximum duration of 3 minute and a 30-second intertrial interral (ITI). Each mouse was placed on the EZRod machines and the latency to fall was recorded for all trials. If the mouse fell or 3 minutes elapsed, the mouse was left in the bottom of the EzRod test chamber for 30 seconds before starting the next trial.
The latency to fall was compared between the two groups by analysis of variance (ANOVA) with repeated measures.

male mice [3] = assay: Novel environment-induced feeding suppression (NEIFS); type: in vivo, mouse; details: 10 and 90 mg/kg, FIG. 10
Method: Novel environment-induced feeding suppression (NEIFS) testing was also performed. Individually housed male mice aged 8-12 weeks are used for this testing. Mice were maintained no a reverse L:D/12 p.m.:12 a.m. cycle in a barrier facility with food and water available ad libitum. Testing occurred towards the end of the light cycle between 6-12 a.m. The mice were acclimated to the testing room for at least 30 minutes.
Days 1, 2, 3 and 5 (Home cage): A Petri dish containing crushed Graham crackers was placed in the farthest corner from each mouse in its own home cage. The time to approach (defined as nose of the mouse directed at or within 1 cm of the dish) and consume (eat, not pick up) the crackers was recorded immediately following the placement of the dish into home cage.
Day 4 (Novel environment): The procedure followed was the same as described for home cage; however, on day 4 the mouse was placed in a new cage with bedding (novel environment) for the duration of the experiment. The mice were subsequently returned to their respective home cages for day 5 testing. The remaining crackers and Petri dish were disposed of at the end of the experiment for each mouse.

male Swiss Webster mice = assay: Spontaneous locomotor activity dose response study (NIDA MDD protocol); type: in vivo, mouse; details: 3, 10, 30 or 100 mg/kg IP, FIGS. 4 and 5
Method: A dose response study was conducted of locomotor depression induced by the compound of Example 3, according to NIDA's Medication Development Division (MDD) locomoter activity studies standard protocol. The study was conducted using 40 Digiscan locomotor activity testing chambers (40.5×40.5×30.5 cm) housed in sets of two, within sound attenuating chambers. A panel of infrared beams (16 beams) and corresponding photodetectors were located in the horizontal direction along the sides of each activity chamber. A 7.5 W incandescent light above each chamber provided dim illumination. Fans provided an 80 dB ambient noise level within the chamber. Separate groups of 8 non-habituated male Swiss Webster mice (Hsd:ND4, aged 2-3 months) were injected via the intraperitoneal (IP) route with either vehicle (2% methyl cellulose) or the compound of Example 3, above, (3, 10, 30 or 100 mg/kg) twenty minutes prior to locomotor activity testing. Just piro to placement in the apparatus, all mice received a saline injection IP. In all studies, horizontal activity (interruption of photocell beams) was measured for 1 hour within 10 minute periods. Testing was conducted with one mouse per activity chamber.
The same protocol was followed in a study of locomotor depression induced by the compound of Example 6. […]

Which “Brain Drug Concentration” value ([1]; 10 mg/kg (IP)) does the source give for `Cc1ccc(C[n+]2[cH-]/c(=N\C(=O)Nc3ccccc3)on2)cc1` [Example 3, N-phenylcarbamoyl-3-(p-methyl-benzyl)-sydnonimine] here?
The value was 0.00 ng/mL.

What about the “Brain Drug Concentration” value ([1]; 10 mg/kg (IV)) of the same compound?
Its value is 95.10 ng/mL.

What about the “Brain Drug Concentration” value ([1]; 10 mg/kg (PO)) of the same compound?
Its value is 107.55 ng/mL.

And the “Brain Drug Concentration” value ([1]; 30 mg/kg (PO))?
The value was 123.97 ng/mL.

What about the concentration at 5 min ([1]; intraperitoneal, 10 mg/kg (IP)) of the same compound?
The concentration at 5 min was 1460 ng/mL.

What about the concentration at 15 min ([1]; intraperitoneal, 10 mg/kg (IP)) of the same compound?
The concentration at 15 min was 374 ng/mL.

And the concentration at 30 min ([1]; intraperitoneal, 10 mg/kg (IP))?
Its concentration at 30 min is 242 ng/mL.

What about the concentration at 60 min ([1]; intraperitoneal, 10 mg/kg (IP)) of the same compound?
The concentration at 60 min was 190 ng/mL.

What about the concentration at 120 min ([1]; intraperitoneal, 10 mg/kg (IP)) of the same compound?
The concentration at 120 min was 70.2 ng/mL.

What about the concentration at 240 min ([1]; intraperitoneal, 10 mg/kg (IP)) of the same compound?
Its concentration at 240 min is 143 ng/mL.

And the concentration at 480 min ([1]; intraperitoneal, 10 mg/kg (IP))?
The concentration at 480 min was 123 ng/mL.

And the concentration at 5 min ([1]; 10 mg/kg (IV))?
The concentration at 5 min was 2310 ng/mL.

And the concentration at 15 min ([1]; 10 mg/kg (IV))?
The concentration at 15 min was 1720 ng/mL.

And the concentration at 30 min ([1]; 10 mg/kg (IV))?
The concentration at 30 min was 1140 ng/mL.

What about the concentration at 60 min ([1]; 10 mg/kg (IV)) of the same compound?
The concentration at 60 min was 464 ng/mL.

What about the concentration at 120 min ([1]; 10 mg/kg (IV)) of the same compound?
The concentration at 120 min was 78.7 ng/mL.

What about the concentration at 240 min ([1]; 10 mg/kg (IV)) of the same compound?
Its concentration at 240 min is 178 ng/mL.

What about the concentration at 480 min ([1]; 10 mg/kg (IV)) of the same compound?
The concentration at 480 min was 49 ng/mL.

And the concentration at 5 min ([1]; 10 mg/kg (PO))?
The concentration at 5 min was 418 ng/mL.

And the concentration at 15 min ([1]; 10 mg/kg (PO))?
Its concentration at 15 min is 298 ng/mL.

What about the concentration at 30 min ([1]; 10 mg/kg (PO)) of the same compound?
The concentration at 30 min was 150 ng/mL.

What about the concentration at 60 min ([1]; 10 mg/kg (PO)) of the same compound?
Its concentration at 60 min is 158 ng/mL.

And the concentration at 120 min ([1]; 10 mg/kg (PO))?
The concentration at 120 min was 165 ng/mL.

What about the concentration at 240 min ([1]; 10 mg/kg (PO)) of the same compound?
The concentration at 240 min was 97.5 ng/mL.

And the concentration at 480 min ([1]; 10 mg/kg (PO))?
Its concentration at 480 min is 163 ng/mL.

And the concentration at 5 min ([1]; 30 mg/kg (PO))?
Its concentration at 5 min is 869 ng/mL.

What about the concentration at 15 min ([1]; 30 mg/kg (PO)) of the same compound?
Its concentration at 15 min is 845 ng/mL.

What about the concentration at 30 min ([1]; 30 mg/kg (PO)) of the same compound?
Its concentration at 30 min is 627 ng/mL.

And the concentration at 60 min ([1]; 30 mg/kg (PO))?
The concentration at 60 min was 218 ng/mL.

What about the concentration at 120 min ([1]; 30 mg/kg (PO)) of the same compound?
Its concentration at 120 min is 203 ng/mL.

What about the concentration at 240 min ([1]; 30 mg/kg (PO)) of the same compound?
Its concentration at 240 min is 183 ng/mL.

And the concentration at 480 min ([1]; 30 mg/kg (PO))?
The concentration at 480 min was 168 ng/mL.

What about the Brain penetration ([1]; administered orally or via intravenous administration) of the same compound?
The Brain penetration was “reaches the brain”.

What about the “Behavioral effects in Irwin Behavioral Battery (spontaneous activity, grip strength, limb tone)” value (mice) of the same compound?
Its value is “induced significant behavioral effects”.

What about the Rotarod performance (male mice [2]) of the same compound?
The Rotarod performance was “did not affect rotarod performance”.

And the “Anxiolytic effect in novel environment induced feeding suppression” value (male mice [3])?
The value was “induced measurable anxiolytic effects”.

And the “Effect on spontaneous locomotor activity” value (male Swiss Webster mice)?
The value was “dose dependent suppression of spontaneous locomotor activity”.
